Test results published in patent publication US20060122181A1, “Heteroaromatic pentacyclic compound and medicinal use thereof” (Japan Tobacco Inc., priority 2003, published 2006).
Where a name gives a salt, the structure may show the parent alone.

Columns and labels:
female ob/ob mice [1] = experiment: Effect of concomitant use with metformin hydrochloride on hypoglycemic activity; format: in vivo; conditions: relative to control
Method: (§1) To 10-week-old female ob/ob mice grouped according to glucose level were orally administered a 0.5% methyl cellulose suspension of the test compound {note: Example 4-2 (1 mg/kg)} (test compound-administered group), a 0.5% methyl cellulose suspension of metformin chloride (30 mg/kg) (metformin-administered group), simultaneously both a 0.5% methyl cellulose suspension of the test compound and a 0.5% methyl cellulose suspension (metformin chloride 30 mg/kg) (test compound and metformin concomitant use group), or a 0.5% methyl cellulose solution alone (control group). The ob/ob mice were fasted for 3 hours before administration.
(§2) Blood was drawn under fasting condition, which condition was started simultaneously with the administration by means of removing the feed. The blood was drawn under anesthesia from the orbital vein 3 and 5 hours after the administration. The blood thus taken was centrifuged and the glucose level was measured from the obtained plasma by the hexokinase method (glucose kit). For evaluation, the percentage (%) of decrease in the glucose level of each group other than the control group relative to the control group is shown.

male db/db mice [2] = experiment: Effect of concomitant use with tolbutamide on hypoglycemic activity; format: in vivo; conditions: relative to control
Method: (§3) To 10-week-old male db/db mice grouped according to glucose level were orally administered a 0.5% methyl cellulose suspension of the test compound {note: Example 4-5 (5 mg/kg)} (test compound-administered group), a 0.5% methyl cellulose suspension of tolbutamide (30 mg/kg) (tolbutamide-administered group), simultaneously both a 0.5% methyl cellulose suspension of the test compound and a 0.5% methyl cellulose suspension (tolbutamide 30 mg/kg) (test compound and tolbutamide concomitant use group), or a 0.5% methyl cellulose solution alone (control group).
as §2, with “vein” for “vein 3 and”, “(glucose measurement” for “(glucose”

male SD rats = experiment: Effect of concomitant use with insulin on hypoglycemic activity; format: in vivo; conditions: 1 hour after vs before insulin
Method: For drawing blood, the animals were fasted after insulin administration. The blood thus taken was centrifuged and the glucose level was measured from the obtained plasma by the hexokinase method (glucose measurement kit). For evaluation, the percentage (%) of decrease in the glucose level of the test compound and insulin concomitant use group and insulin administration group one hour later relative to before insulin administration is shown.

female ob/ob mice [3] = experiment: Effect of concomitant use with glibenclamide on hypoglycemic activity; format: in vivo; conditions: relative to control
Method: as §1, with “glibenclamide (3” for “metformin chloride (30”, “(glibenclamide-administered” for “(metformin-administered”, “(glibenclamide 3” for “(metformin chloride 30”, “glibenclamide” for “metformin”, “group).” for “group). The ob/ob mice were fasted for 3 hours before administration.”
as §2, with “The blood was drawn under anesthesia from the orbital vein 3 and 5 hours after the administration.” left out

male db/db mice [4] = experiment: Effect of concomitant use with pioglitazone hydrochloride on hypoglycemic activity; format: in vivo; conditions: relative to control; for blood glucose decreasing rate (%) Day 3: 3 hours after administration
Method: To 8-week-old male db/db mice grouped according to full feed glucose level were orally administered a 0.5% methyl cellulose suspension of the test compound {note: Example 4-5 (10 mg/kg)} (test compound-administered group), a 0.5% methyl cellulose suspension of Pioglitazone hydrochloride (3 mg/kg) (Pioglitazone-administered group), simultaneously both a 0.5% methyl cellulose suspension of the test compound and a 0.5% methyl cellulose suspension (Pioglitazone hydrochloride 3 mg/kg) (test compound and Pioglitazone concomitant use group), or a 0.5% methyl cellulose solution alone (control group), once a day for 3 days.
as §2, with “vein on day 1 of administration and” for “vein”, “3” for “3 and 5”, “administration on day 3.” for “administration.”

female ob/ob mice [5] = experiment: Effect of concomitant use with voglibose on hypoglycemic activity (sucrose loading); format: in vivo; conditions: after sucrose loading 2 g/kg, relative to control
Method: as §1, with “9-week-old” for “10-week-old”, “voglibose (0.3” for “metformin chloride (30”, “(voglibose-administered” for “(metformin-administered”, “(voglibose 0.3” for “(metformin chloride 30”, “voglibose” for “metformin”, “One hour later, sucrose (2 g/5 mL/kg) was loaded.” for “The ob/ob mice were fasted for 3 hours before administration.”
as §2, with “loading” for “administration”, “1” for “3”, “2” for “5”, “sucrose loading.” for “administration.”

male db/db mice [6] = experiment: Effect of concomitant use with nateglinide on hypoglycemic activity; format: in vivo; conditions: relative to control
Method: as §3, with “nateglinide” for “tolbutamide”, “(nateglinide-administered” for “(tolbutamide-administered”, “(nateglinide” for “(tolbutamide”
as §2, with “2” for “3 and 5”, “(glucose measurement” for “(glucose”

[7] = metformin chloride 30 mg/kg oral alone, ob/ob mice
[8] = glibenclamide 3 mg/kg oral alone
[9] = Pioglitazone hydrochloride 3 mg/kg oral once a day alone
[10] = test compound 5 mg/kg oral alone
[11] = test compound 10 mg/kg + Pioglitazone hydrochloride 3 mg/kg oral once a day
[12] = test compound 10 mg/kg oral once a day alone
[13] = test compound 1 mg/kg + voglibose 0.3 mg/kg oral
[14] = test compound 1 mg/kg oral alone
[15] = test compound 1 mg/kg + metformin chloride 30 mg/kg oral, ob/ob mice
[16] = test compound 1 mg/kg oral alone, ob/ob mice fasted 3 hours before administration
[17] = test compound 1 mg/kg + glibenclamide 3 mg/kg oral

CN(C)C(=N)N=C(N)N [Metformin, metformin hydrochloride, reference compound]
blood glucose decreasing rate (%) 3 hours later (female ob/ob mice [1]; [7]): 17%
blood glucose decreasing rate (%) 5 hours later (female ob/ob mice [1]; [7]): 39%

CCCCNC(=O)NS(=O)(=O)c1ccc(C)cc1 [Tolbutamide, tolbutamide, reference compound]
blood glucose decreasing rate (%) 5 hours later (male db/db mice [2]; tolbutamide 30 mg/kg oral alone): 26%

CCCC(CCC)c1ccc(CN(C)c2ccc(-c3csc(CN(CC(=O)[O-])Cc4ccccc4)n3)cc2)cc1.[Na+] [Example 3-40]
blood glucose decreasing rate (%) Day of start of administration (male SD rats; test compound 30 mg/kg oral once a day + insulin 0.6 U/kg s.c. 3 hours later): 43%
blood glucose decreasing rate (%) Day 8 (male SD rats; test compound 30 mg/kg oral once a day for 8 days + insulin 0.6 U/kg s.c.): 36%

COc1ccc(Cl)cc1C(=O)NCCc1ccc(S(=O)(=O)NC(=O)NC2CCCCC2)cc1 [Glibenclamide, glibenclamide, reference compound]
blood glucose decreasing rate (%) 3 hours later (female ob/ob mice [3]; [8]): 44%
blood glucose decreasing rate (%) 15 hours later (female ob/ob mice [3]; [8]): 40%

CCc1ccc(CCOc2ccc(CC3SC(=O)NC3=O)cc2)nc1 (stereo not drawn) [Pioglitazone, pioglitazone hydrochloride, reference compound]
blood glucose decreasing rate (%) Day 3 (male db/db mice [4]; [9]): 44%
blood glucose decreasing rate (%) Day of start of administration (male db/db mice [4]; [9]): 11%

OCC(CO)N[C@H]1C[C@](O)(CO)[C@@H](O)[C@H](O)[C@H]1O [Voglibose, voglibose, reference compound]
blood glucose decreasing rate (%) 1 hour later (female ob/ob mice [5]; voglibose 0.3 mg/kg oral alone): 35%
blood glucose decreasing rate (%) 2 hours later (female ob/ob mice [5]; voglibose 0.3 mg/kg oral alone): 38%

CCCC(CCC)c1ccc(OCc2ccc(-c3ccc(COc4cncc(C(=O)O)c4)s3)cc2)cc1 [Example 4-5]
blood glucose decreasing rate (%) 2 hours later (male db/db mice [6]; test compound 5 mg/kg + nateglinide 30 mg/kg oral): 19%
blood glucose decreasing rate (%) 2 hours later (male db/db mice [6]; [10]): 11%
blood glucose decreasing rate (%) 5 hours later (male db/db mice [2]; test compound 5 mg/kg + tolbutamide 30 mg/kg oral): 30%
blood glucose decreasing rate (%) 5 hours later (male db/db mice [2]; [10]): 26%
blood glucose decreasing rate (%) Day 3 (male db/db mice [4]; [11]): 48%
blood glucose decreasing rate (%) Day of start of administration (male db/db mice [4]; [11]): 30%
blood glucose decreasing rate (%) Day 3 (male db/db mice [4]; [12]): 32%
blood glucose decreasing rate (%) Day of start of administration (male db/db mice [4]; [12]): 24%
melting point: 153 to 155 °C

CCCC(CCC)c1ccc(OCc2ccc(-c3csc(COc4cncc(C(=O)O)c4)c3)cc2)cc1 [Example 4-2, 5-(4-{4-[4-(1-Propylbutyl)phenoxymethyl]phenyl}thiophen-2-ylmethoxy)nicotinic acid]
blood glucose decreasing rate (%) 1 hour later (female ob/ob mice [5]; [13]): 49%
blood glucose decreasing rate (%) 2 hours later (female ob/ob mice [5]; [13]): 54%
blood glucose decreasing rate (%) 1 hour later (female ob/ob mice [5]; [14]): 32%
blood glucose decreasing rate (%) 2 hours later (female ob/ob mice [5]; [14]): 40%
blood glucose decreasing rate (%) 3 hours later (female ob/ob mice [1]; [15]): 40%
blood glucose decreasing rate (%) 5 hours later (female ob/ob mice [1]; [15]): 51%
blood glucose decreasing rate (%) 3 hours later (female ob/ob mice [1]; [16]): 19%
blood glucose decreasing rate (%) 5 hours later (female ob/ob mice [1]; [16]): 20%
blood glucose decreasing rate (%) 3 hours later (female ob/ob mice [3]; [17]): 64%
blood glucose decreasing rate (%) 15 hours later (female ob/ob mice [3]; [17]): 60%
blood glucose decreasing rate (%) 3 hours later (female ob/ob mice [3]; [14]): 48%
blood glucose decreasing rate (%) 15 hours later (female ob/ob mice [3]; [14]): 20%

CC(C)[C@H]1CC[C@H](C(=O)N[C@H](Cc2ccccc2)C(=O)O)CC1 [Nateglinide, nateglinide, reference compound]
blood glucose decreasing rate (%) 2 hours later (male db/db mice [6]; nateglinide 30 mg/kg oral alone): 5%
